# Data published in patent US20200069686A1, “N-SUBSTITUTED INDOLE DERIVATIVES” (Idorsia Pharmaceuticals Ltd, priority 2017, published 2020).
# Legend:
# Format in all cases: cell-based
# PTGER2 (EP2) = biological target: T1, PTGER2 (EP2) (Homo sapiens, UniProt P43116); assay: hEP2 b-arrestin assay (PathHunter HEK 293 PTGER2 b-arrestin cells); settings: PGE2 5 μM (EC80) as agonist, antagonistic activity, read-out: hEP2 beta-arrestin IC50
# T1 construct: host or cells: HEK 293 (PathHunter PTGER2 b-arrestin cell line)
# Experimental: (§1) The antagonistic activities of the compounds of formula (I) on the EP2 and EP4 receptors are determined in accordance with the following experimental methods.
# (§2) The assay is using the PathHunter™ HEK 293 PTGER2 and PTGER4 b-arrestin cell lines from DiscoverX. The system is based on the Enzyme Fragment Complementation Technology. Two complementing fragments of the b-galactosidase enzyme are expressed within stably transfected cells. The larger portion of b-gal, termed EA for Enzyme Acceptor, is fused to the C-terminus of b-arrestin 2. The smaller fragment, termed ProLink™ tag, is fused to PTGER2 (EP2) or PTRGER4 (EP4) at the C-terminus. Upon activation, b-arrestin is recruited which forces the interaction of ProLink and EA, allowing complementation of the two fragments of b-gal and the formation of a functional enzyme which is capable of hydrolysing the substrate and generating a chemiluminescent signal.
# (§3) The HEK 293 PTGER2 b-arrestin cells (DiscoverX 93-021-4C1) are detached from culture dishes with a cell dissociation buffer (Invitrogen, 13151-014), and collected in growing medium (GM: DMEM+Glutamax-I (Invitrogen 32430)/10% FCS, 1% Penicilin/streptomycin). 5000 cells per well of a 384 well plate (white with white bottom Greiner 781080) are seeded in 20 ul per well of GM. Plate is incubated at 37° C., 5% CO2 for 24 hours.
# (§4) Stock solutions of test compounds are made at a concentration of 10 mM in DMSO, and serially diluted in DMSO to concentrations required for inhibition dose response curves (tested concentration range 10 μM-2 nM or 1 μM-0.2 nM).
# PGE2 (Cayman 14010, stock solution: 10 mM in DMSO) is used as agonist at 5 μM final concentration, corresponding to EC80.
# Five microliters of diluted compounds are transferred into the assay plate. Plate is pre-incubated 15 minutes at 37° C. Then five microliters of PGE2 (final conc. 5 μM) are transferred into the assay plate. Plate is incubated 120 minutes at 37° C.
# (§5) PathHunter Glo Detection Kit components are thawed and mix according to manufacturers instructions: 1 part Galacton Star Substrate with 5 parts Emerald II™ Solution, and 19 parts of PathHunter Cell Assay Buffer, respectively. Twelve μL of reagent are transferred to the assay plate and incubate for 1 hour at room temperature in the dark. Luminescence counts are read on a BMG Fluostar Optima reader according to manufacturers instructions.
# (§6) For each compound concentration calculate of the percentage of activity compared to DMSO control value as average ±STDEV. (each concentration is measured in duplicate)
# (§7) IC50 values and curves are generated with XLfit software (IDBS) using Dose-Response One Site model 203. When compounds were measured multiple times, mean values are given.
# PTRGER4 (EP4) = biological target: T2, PTRGER4 (EP4) (Homo sapiens, UniProt P35408); assay: hEP4 b-arrestin assay (PathHunter HEK 293 PTGER4 b-arrestin cells); settings: PGE2 20 nM (EC80) as agonist, antagonistic activity, read-out: hEP4 beta-arrestin IC50
# T2 construct: host or cells: HEK 293 (PathHunter PTGER4 b-arrestin cell line)
# Experimental: as §1, §2
# as §3, with “293 PTGER4” for “293 PTGER2”, “(DiscoverX 93-030-4C1)” for “(DiscoverX 93-021-4C1)”, “20 μl” for “20 ul”
# as §4
# PGE2 (Cayman 14010, stock solution: 100 uM in DMSO) is used as agonist at 20 nM final concentration, corresponding to EC80.
# Five microliters of diluted compounds are transferred into the assay plate. Plate is pre-incubated 15 minutes at 37° C. Then five microliters of PGE2 (final conc. 20 nM) are transferred into the assay plate. Plate is incubated 120 minutes at 37° C.
# as §5, with “I” for “μL”
# as §6, §7
# EP4 = biological target: T3, EP4 (Homo sapiens, UniProt P35408); assay: hEP4 cAMP assay (BT549 breast cancer cells, HTRF cAMP); settings: PGE2 6 nM (EC80) as agonist, antagonistic activity
# T3 construct: BT549 breast cancer cells, express high endogenous EP4 levels and very low EP2 levels; endogenous in cells; host or cells: BT549 breast cancer cells (NCI No. 0507282)
# Experimental: (§8) The antagonistic activities of the compounds of formula (I) on the EP2 and EP4 receptors are also determined in accordance with the following experimental method.
# (§9) Human tumor cell lines expressing endogenously either EP4 or EP2 are used and cAMP accumulation in cells upon PGE2 stimulation is monitored. SF295 glioblastoma cells express high endogenous EP2 and no EP4,whereas BT549 breast cancer cells, express high endogenous EP4 levels and very low EP2 levels.
# (§10) As a detection method for cAMP the HTRF (homogeneous time resolved fluorescence) Cisbio kit (HTRF cAMP dynamic 2 kit 20′000 tests Cisbio Cat. #62AM4PEC) was used, which is based on a competitive immunoassay using a Cryptate-labeled anti-cAMP antibody and d2-labeled cAMP. Native cAMP produced by cells or unlabeled cAMP (for the standard curve) compete with exogenously added d2-labeled cAMP (acceptor) for binding to monoclonal anti-cAMP-Eu3+ Cryptate (donor). A FRET signal (Fluorescence Resonance Energy Transfer) is obtained only if the labeled anti-cAMP antibody binds the d2 labelled cAMP, thus the specific signal (i.e. energy transfer) is inversely proportional to the concentration of cAMP in the standard or sample.
# (§11) The BT549 cells (NCl/No. 0507282) are detached from culture dishes with a cell dissociation buffer (Invitrogen, 13151-014), and collected in growing medium (GM: RPM11640 (Invitrogen 21875)/10% FCS, 1% Penicilin/streptomycin). Cells are counted washed and resuspended in assay buffer (AB; HBSS, 20 mM HEPES, 0.2% BSA; 2 mM IBMX). 4′000 cells in 5 μL of AB are seeded per well of a small volume 384 well plate (black with flat bottom, Greiner 784076).
# Stock solutions of test compounds are made at a concentration of 10 mM in DMSO, and serially diluted in DMSO to concentrations required for inhibition dose response curves (tested concentration range 30 μM-0.4 nM; 30 μM-0.015 nM or 1 μM-0.01 nM).
# PGE2 (Cayman 14010, stock solution: 6 μM in DMSO) is used as agonist at 6 nM final concentration, corresponding to EC80.
# (§12) 2.5 μL of diluted compounds are transferred into the assay plate. […] Five μL of each donor (anti-cAMP cryptate) and acceptor (cAMP-d2) are added and the plate is incubated another hour at room temperature in the dark and then read using a BMG LABTECH PHERAstar reader (Excitation: 337 nm, Emission: 620 and 665 nm).
# (§13) The obtained Delta F (fluorescence) values (665 nm/620 nM) are converted into % cAMP values using the measurements of the cAMP calibrator provided in the kit. For each compound concentration the percentage of cAMP compared to DMSO control value as average ±STDEV (each concentration is measured in duplicate) is calculated.
# as §7
# EP2 = biological target: T4, EP2 (Homo sapiens, UniProt P43116); assay: hEP2 cAMP assay (SF295 glioblastoma cells, HTRF cAMP); settings: PGE2 75 nM (EC80) as agonist, antagonistic activity
# T4 construct: SF295 glioblastoma cells express high endogenous EP2 and no EP4; endogenous in cells; host or cells: SF295 glioblastoma cells (NCI No. 0503170)
# Experimental: as §8, §9, §10
# as §11, with “SF295” for “BT549”, “0503170)” for “0507282)”
# Stock solutions of test compounds are made at a concentration of 10 mM in DMSO, and serially diluted in DMSO to concentrations required for inhibition dose response curves (tested concentration range 30 μM-0.4 nM; […] or 1 μM-0.01 nM).
# PGE2 (Cayman 14010, stock solution: […] in DMSO) is used as agonist at 75 nM final concentration, corresponding to EC80.
# as §12, with “Five I” for “Five μL”
# as §13, §7
# T2 sequence (P35408 whole entry): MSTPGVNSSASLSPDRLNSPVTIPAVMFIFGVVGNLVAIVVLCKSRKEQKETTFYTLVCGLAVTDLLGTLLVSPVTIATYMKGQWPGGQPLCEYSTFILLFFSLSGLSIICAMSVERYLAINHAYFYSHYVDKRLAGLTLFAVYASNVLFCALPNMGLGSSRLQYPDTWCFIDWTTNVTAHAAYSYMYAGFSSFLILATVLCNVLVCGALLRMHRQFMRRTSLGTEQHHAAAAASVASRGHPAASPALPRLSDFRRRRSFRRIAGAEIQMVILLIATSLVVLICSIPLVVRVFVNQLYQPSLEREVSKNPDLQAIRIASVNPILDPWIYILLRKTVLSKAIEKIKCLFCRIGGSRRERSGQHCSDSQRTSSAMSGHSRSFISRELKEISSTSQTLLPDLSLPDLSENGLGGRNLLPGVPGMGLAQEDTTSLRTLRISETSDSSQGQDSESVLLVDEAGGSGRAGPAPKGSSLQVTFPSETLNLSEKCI
# T3 sequence (P35408 whole entry): as above
# T1 sequence (P43116 whole entry): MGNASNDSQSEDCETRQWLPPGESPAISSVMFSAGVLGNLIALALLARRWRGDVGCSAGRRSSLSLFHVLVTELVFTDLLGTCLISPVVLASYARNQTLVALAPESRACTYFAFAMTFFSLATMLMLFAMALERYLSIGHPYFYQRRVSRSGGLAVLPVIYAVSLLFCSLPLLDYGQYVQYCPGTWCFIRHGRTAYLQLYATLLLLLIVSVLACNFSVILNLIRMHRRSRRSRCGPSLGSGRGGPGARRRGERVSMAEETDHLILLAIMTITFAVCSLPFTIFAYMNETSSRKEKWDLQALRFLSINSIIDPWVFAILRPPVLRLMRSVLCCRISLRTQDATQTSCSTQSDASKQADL
# T4 sequence (P43116 whole entry): as above
Compound,IC50 (PTGER2 (EP2)) [µM],IC50 (PTRGER4 (EP4)) [µM],IC50 (EP4) [µM],IC50 (EP2) [µM]
"Cc1cc2ccccc2n1CCNc1cc(-c2ccc(C(=O)O)cc2)ncn1 [Example 1, 4-{6-[2-(2-Methyl-indol-1-yl)-ethylamino]-pyrimidin-4-yl}-benzoic acid]",0.013,5.97,5.72,0.015
"N#Cc1cc2ccccc2n1CCNc1cc(-c2ccc(C(=O)O)cc2)ncn1 [Example 2, 4-{6-[2-(2-Cyano-indol-1-yl)-ethylamino]-pyrimidin-4-yl}-benzoic acid]",0.011,2.06,1.35,0.01

# Further molecules by falling IC50 (PTGER2 (EP2)), results first:
IC50 (PTGER2 (EP2)) [µM],IC50 (PTRGER4 (EP4)) [µM],IC50 (EP4) [µM],IC50 (EP2) [µM],Compound
0.017,4.97,–,–,"O=C(O)c1ccc(-c2cc(NCCn3c(Br)cc4ccccc43)ncn2)cc1 [Example 5, 4-{6-[2-(2-Bromo-indol-1-yl)-ethylamino]-pyrimidin-4-yl}-benzoic acid]"
0.008,11,5.66,0.005,"Cc1cccc2cc(C)n(CCNc3cc(-c4ccc(C(=O)O)cc4)ncn3)c12 [Example 3, 4-{6-[2-(2,7-Dimethyl-indol-1-yl)-ethylamino]-pyrimidin-4-yl}-benzoic acid]"
0.003,2.96,2.61,0.002,"O=C(O)c1ccc(-c2cc(NCCn3c(Cl)cc4ccccc43)ncn2)cc1 [Example 4, 4-{6-[2-(2-Chloro-indol-1-yl)-ethylamino]-pyrimidin-4-yl}-benzoic acid]"
